Values after ≈ are worked out from the molar mass of the structure shown. Active and inactive are the calls of the source. The rule behind the calls is not given here.
Assays:
CDK2/Cyclin A2 = CDK2/Cyclin A2 (Homo sapiens, UniProt P24941); assay: Inhibition of CDK2/Cyclin A2 (unknown origin) preincubated for 10 mins followed by substrate/ATP measured after 60 mins by ADP-Glo assay; format: protein-complex assay
CDK9/cyclin T1 = CDK9/cyclin T1 (Homo sapiens, UniProt P50750); assay: Inhibition of CDK9/cyclin T1 (unknown origin) preincubated for 10 mins followed by substrate/ATP measured after 60 mins by ADP-Glo assay; format: protein-complex assay
Sequence of CDK9/cyclin T1 (O60563 whole entry): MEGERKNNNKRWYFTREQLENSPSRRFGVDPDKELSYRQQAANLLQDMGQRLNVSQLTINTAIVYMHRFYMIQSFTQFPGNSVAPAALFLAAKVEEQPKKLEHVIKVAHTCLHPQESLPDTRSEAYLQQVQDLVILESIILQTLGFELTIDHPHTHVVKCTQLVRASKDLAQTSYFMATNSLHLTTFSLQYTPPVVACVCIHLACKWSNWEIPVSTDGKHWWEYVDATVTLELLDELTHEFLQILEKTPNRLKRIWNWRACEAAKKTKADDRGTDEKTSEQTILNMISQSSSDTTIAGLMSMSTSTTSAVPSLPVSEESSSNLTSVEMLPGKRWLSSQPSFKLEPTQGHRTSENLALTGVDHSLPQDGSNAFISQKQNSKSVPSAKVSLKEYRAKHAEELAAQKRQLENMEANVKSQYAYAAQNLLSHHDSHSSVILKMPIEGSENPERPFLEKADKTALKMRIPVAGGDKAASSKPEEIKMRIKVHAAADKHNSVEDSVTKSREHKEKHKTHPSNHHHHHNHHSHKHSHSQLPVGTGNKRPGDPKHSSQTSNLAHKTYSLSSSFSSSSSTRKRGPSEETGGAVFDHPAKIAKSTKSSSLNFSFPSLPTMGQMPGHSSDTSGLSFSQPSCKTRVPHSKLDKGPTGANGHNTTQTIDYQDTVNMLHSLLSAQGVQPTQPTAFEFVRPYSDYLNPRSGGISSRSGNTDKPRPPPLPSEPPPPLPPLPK
Sequence of CDK9/cyclin T1 (P50750 whole entry): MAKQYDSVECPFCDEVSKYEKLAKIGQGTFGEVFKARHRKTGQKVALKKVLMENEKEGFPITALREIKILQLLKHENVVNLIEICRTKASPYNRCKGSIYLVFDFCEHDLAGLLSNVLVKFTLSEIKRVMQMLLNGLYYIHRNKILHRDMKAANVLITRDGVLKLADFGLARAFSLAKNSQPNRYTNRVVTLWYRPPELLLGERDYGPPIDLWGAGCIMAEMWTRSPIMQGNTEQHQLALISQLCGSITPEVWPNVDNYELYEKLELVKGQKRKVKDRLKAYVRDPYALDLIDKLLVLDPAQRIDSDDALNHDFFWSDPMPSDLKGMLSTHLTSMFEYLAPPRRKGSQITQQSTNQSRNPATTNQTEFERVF

[1] = Anti-proliferative activity against human Osimertinib-resistant HCC827 cells assessed as cell inhibition measured after 72 hrs by MTT assay; format: functional, cell-based
[2] = Solubility of compound in PBS at pH 6.0 incubated for 2 hrs by HPLC analysis; format: physicochemical
NCI-H1975 [3] = assay: Anti-proliferative activity against human NCI-H1975 cells assessed as cell inhibition measured after 72 hrs by MTT assay; format: functional, cell-based; settings: NCI-H1975, 72 h
[4] = Metabolic stability in human liver microsomes assessed as half life measured for 5 to 60 mins by LC-MS/MS analysis; format: ADME, Microsome; settings: time 5-60 min
[5] = Metabolic stability in rat liver microsomes assessed as half life measured for 5 to 60 mins by LC-MS/MS analysis; format: ADME, Microsome; settings: time 5-60 min
[6] = system: Osimertinib-resistant NCI-H1975 cell; assay: Anti-proliferative activity against human Osimertinib-resistant NCI-H1975 cells assessed as cell inhibition measured after 72 hrs by MTT assay; format: functional, cell-based
[7] = Toxicity in BALB-c mouse xenografted with human Osimertinib-resistant HCC827 cells assessed as decrease in body weight at 30 mg/kg, ip; format: organism-based; settings: in vivo
[8] = system: Osimertinib-resistant HCC827 cell; assay: Antitumor activity against human Osimertinib-resistant HCC827 cells xenografted in BALB-c nude mouse assessed as tumor growth inhibition at 30 mg/kg, ip; format: functional, organism-based
[9] = Toxicity in BALB-c mouse xenografted with human NCI-H1975 cells assessed as decrease in body weight at 30 mg/kg, ip; format: organism-based; settings: in vivo
HCC827 = assay: Anti-proliferative activity against human HCC827 cells assessed as cell inhibition measured after 72 hrs by MTT assay; format: functional, cell-based; settings: HCC827, 72 h
NCI-H1975 [10] = assay: Antitumor activity against human NCI-H1975 cells xenografted in BALB-c nude mouse assessed as tumor growth inhibition at 30 mg/kg, ip; format: functional, organism-based
NCI-H1299 = assay: Anti-proliferative activity against human NCI-H1299 cells assessed as cell inhibition measured after 72 hrs by MTT assay; format: functional, cell-based; settings: NCI-H1299, 72 h
16HBE14o- = assay: Anti-proliferative activity against human 16-HBE cells assessed as cell inhibition measured after 72 hrs by MTT assay; format: functional, cell-based
NCI-H596 = assay: Anti-proliferative activity against human NCI-H596 cells assessed as cell inhibition measured after 72 hrs by MTT assay; format: functional, cell-based; settings: NCI-H596, 72 h
[11] = system: Osimertinib-resistant NCI-H1975 cell; assay: Induction of apoptosis in human Osimertinib-resistant NCI-H1975 cells assessed as necrotic cells at 0.5 uM incubated for 16 hrs by Annexin V-FITC/PI staining based flow cytometry (reference value: 0.33 %); format: functional
[12] = system: Osimertinib-resistant NCI-H1975 cell; assay: Induction of apoptosis in human Osimertinib-resistant NCI-H1975 cells assessed as viable cells at 0.5 uM incubated for 16 hrs by Annexin V-FITC/PI staining based flow cytometry (reference value: 89.4 %); format: functional; settings: read-out: Activity
[13] = system: Osimertinib-resistant NCI-H1975 cell; assay: Induction of apoptosis in human Osimertinib-resistant NCI-H1975 cells assessed as late apoptotic cells at 0.5 uM incubated for 16 hrs by Annexin V-FITC/PI staining based flow cytometry (reference value: 5.92 %); format: functional
[14] = system: Osimertinib-resistant NCI-H1975 cell; assay: Induction of apoptosis in human Osimertinib-resistant NCI-H1975 cells assessed as early apoptotic cells at 0.5 uM incubated for 16 hrs by Annexin V-FITC/PI staining based flow cytometry (reference value: 4.39 %); format: functional
PC-9 = assay: Anti-proliferative activity against human PC-9 cells assessed as cell inhibition measured after 72 hrs by MTT assay; format: functional, cell-based; settings: PC-9, 72 h

SMILES	IC50 (CDK2/Cyclin A2) [µM]	IC50 (CDK9/cyclin T1) [µM]	IC50 [1] [µM]	IC50 (NCI-H1975 [3]) [µM]	half-life [4] [min]	half-life [5] [min]	IC50 [6] [µM]	other results
O=C(NC1CCN(C2CCOC2)CC1)c1ccc2cc1OCCCCCCn1cc(cn1)-c1nc(ncc1F)N2 (stereo not given)	0.0142	0.0013	0.08	0.09	–	–	–	solubility at 2 h [2]: 35 µg/mL (≈ 63.7 µM)
CC(C)N1CCC(NC(=O)c2ccc3cc2OCCCCCCOc2cc(ccc2F)-c2nc(ncc2F)N3)CC1	0.067	0.0023	–	0.37	161	8.6	0.36	–
O=C(NC1CCN(C2CCOCC2)CC1)c1ccc2cc1OCCCCCCOc1cc(ccc1F)-c1nc(ncc1F)N2	–	–	–	–	301	–	–	–
O=C(NCCN1CCOCC1)c1ccc2cc1OCCCCCCOc1cc(ccc1F)-c1nc(ncc1F)N2	–	–	0.24	0.18	10.7	6.8	–	solubility at 2 h [2]: 17 µg/mL (≈ 30.7 µM)
O=C(NC1CCN(C2CCOC2)CC1)c1ccc2cc1OCCCCCCOc1cc(ccc1F)-c1nc(ncc1F)N2 (stereo not given)	0.15	0.001	0.3	0.38	55	25.2	0.11	–
CC(=O)N1CCC(NC(=O)c2ccc3cc2OCCCCCCOc2cncc(c2)-c2nc(ncc2F)N3)CC1	0.0206	0.001	0.04	–	–	–	–	–
O=C(NCCN1CCCC1)c1ccc2cc1OCCCCCCOc1cc(ccc1F)-c1nc(ncc1F)N2	0.0183	0.0017	0.14	0.29	37.7	36.7	0.1	–
Cc1sc2c(c1C)C(c1ccc(Cl)cc1)=N[C@@H](CC(=O)OC(C)(C)C)c1nnc(C)n1-2	–	–	8.91	3.97	–	–	2.29	Activity [7]: Non-toxic; inhibition [8]: inactive; Activity [9]: Non-toxic; IC50 (HCC827): 9.74 µM; inhibition (NCI-H1975 [10]): inactive
CCN1CCC(NC(=O)c2ccc3cc2OCCCCCCOc2cc(ccc2F)-c2nc(ncc2F)N3)CC1	0.0688	0.0023	–	0.28	257	5.4	0.28	–
O=C(NC1CCN(C2CC2)CC1)c1ccc2cc1OCCCCCCn1cc(cn1)-c1nc(ncc1F)N2	0.0114	0.001	–	–	–	–	–	–
CN1CCN(CCNC(=O)c2ccc3cc2OCCCCCCOc2cc(ccc2F)-c2nc(ncc2F)N3)CC1	–	–	–	–	13.2	9.5	–	–
O=C(NC1CCN(C2CCOC2)CC1)c1ccc2cc1OCCCCCCOc1cncc(c1)-c1nc(ncc1F)N2 (stereo not given)	0.0181	0.0011	0.04	0.06	–	–	–	solubility at 2 h [2]: 58 µg/mL (≈ 101 µM)
O=C(NC1CCN(C2CC2)CC1)c1ccc2cc1OCCCCCCOc1cncc(c1)-c1nc(ncc1F)N2	0.0283	0.0014	–	–	–	–	–	–
CN1CCC(NC(=O)c2ccc3cc2OCCCCCCOc2cc(ccc2F)-c2nc(ncc2F)N3)CC1	–	–	–	–	66.6	42.5	–	–
O=C(NC1CCN(C2CC2)CC1)c1ccc2cc1OCCCCCCOc1cc(ccc1F)-c1nc(ncc1F)N2	0.37	0.0034	0.21	0.32	21.4	64.7	0.23	–
O=C(CN1CCOCC1)NCc1ccc2cc1OCCCCCCOc1cc(ccc1F)-c1nc(ncc1F)N2	0.2	0.00513	–	0.59	–	–	–	solubility at 2 h [2]: 20 µg/mL (≈ 36.1 µM)
O=C(NC1CCN(C2CCOC2)CC1)c1ccc2cc1OCCCCCCOc1cc(ccc1F)-c1ncnc(n1)N2 (stereo not given)	0.286	0.0061	0.35	0.11	–	–	–	solubility at 2 h [2]: 27 µg/mL (≈ 46.8 µM)
O=C(NCCN1CCOCC1)c1ccc2cc1OCCCCCCOc1cncc(c1)-c1nc(ncc1F)N2	0.0222	0.0015	–	0.07	–	–	–	solubility at 2 h [2]: 39 µg/mL (≈ 72.7 µM)
COc1cc(F)ccc1-c1cc(Nc2cc(CS(C)(=N)=O)ccn2)ncc1F (stereo not given) [ENITOCICLIB]	–	–	0.13	0.14	–	–	0.12	IC50 (NCI-H1299): 0.13 µM; IC50 (16HBE14o-): 0.41 µM; IC50 (NCI-H596): 0.09 µM; Activity [11]: 1.26%; viability at 0.5 µM [12]: 76.9%; Activity [13]: 10.1%; IC50 (HCC827): 0.13 µM; Activity [14]: 11.8%; IC50 (PC-9): 0.12 µM
COC[C@@H](C)NC(=O)c1ccc2cc1OCCCCCCOc1cc(ccc1F)-c1nc(ncc1F)N2	> 0.5	0.0025	0.28	0.3	11.3	123	0.22	–
CN1CCC(CNC(=O)c2ccc3cc2OCCCCCCOc2cc(ccc2F)-c2nc(ncc2F)N3)CC1	0.0389	0.0031	–	–	112	12.4	0.25	–

— ChEMBL document CHEMBL6153135, “Rational Design of a Potent, Selective, and Metabolically Stable CDK9 Inhibitor to Counteract Osimertinib Resistance through Mcl-1 Suppression and Enhanced BRD4 Co-Targeting” (J Med Chem, 2025)
